These results are taken from US6596878B2, “Methods and compositions for inhibiting cell proliferative disorders” (Yissum Research & Development Company of the Hebrew …, priority 1994, dated 2003).

Assay [1] has as its system MCF7 human breast carcinoma cells. The assay is described as follows: MCF-7 SRB growth assay. The note with it: Table VI, 10% FBS, four days. It counts as cell-based. An excerpt: (§1) This example illustrates the ability of the exemplary compounds to inhibit receptor tyrosine kinases, such as HER2 and/or EGFR. The following target cells were used for cellular kinaseassays: NIH3T3 clone C7 (Honegger et al., supra) engineered to over-express human EGF receptor; NIH3T3 cells engineered to over-express a chimeric receptor containing the EGFR extracellular domain and the HER2 intracellular kinase domain; the human mammary carcinoma line BT474 (ATCC HTB2) expressing HER2; and the human glioblastoma line U1242 that expresses PDGFR-β. Growth assays were carried out using human mammary epithelial SKBR3 (ATCC HTB30) cells, SKOV3 (ATCC HTB77) human ovarian cancer cell line, A431 cells, MCF7 human breast carcinoma cells, MCF7 cells overexpress the HER2 kinase (MCF7-HER2), NIH3T3 cells, and NIH3T3 cells overexpressing the HER2 kinase (3T3-HER2).
6. MCF-7 SRB Growth Assay
(§2) MCF-7 cells are seeded at 2000 cells/ well in a 96-well flat bottom plate in normal growth media, which was 10% FBS/RPMI supplemented with 2 mM Glutamine. The plate of cells is incubated for about 24 hours at 37° C. after which it receives an equal volume of compound dilution per well making the total volume per well 200 μl. The compound is prepared at 2 times the desired highest final concentration and serially diluted in the normal growth media in a 96-well round bottom plate and then transferred to plate of cells. DMSO serves as the vector control up to 0.2% as final concentration. The cells are then incubated at 37° C. in a humidified 5% CO2 incubator.
(§3) Four days following dosing of compound, the media is discarded and 200 μl/well of ice-cold 10% TCA (Trichloroacetic Acid) is added to fix cells. After 60 minutes at 4° C., the TCA is discarded and the plate is rinsed 5 times with water. The plate is then air-dried and 100 μl/well of 0.4% SRB (Sulforhodamine B from Sigma) in 1% Acetic Acid is added to stain cells for 10 minutes at room temperature. The SRB is discarded and the plate is rinsed 5 times with 1% Acetic Acid. After the plate is completely dried, 100 μl/well of 10 mM Tris-base is added to solubilize the dye. After 5 to 10 minutes, the plate is read on a Dynatech ELISA Plate Reader at dual wavelengths at 570 nm and 630 nm.

Assay [2] concerns MCF7 cells overexpress the HER2 kinase (MCF7-HER2). The assay is described as follows: MCF-7/HER-2 SRB growth assay. It counts as cell-based, human. The following applies: Table VI, 0.5% FBS, four days.
Source text: as §1, §2, §3
8. MCF-7/HER-2 SRB Growth Assay
The protocol is basically the same as that above (for the MCF-7 Growth Assay) except that immediately before the compound is added, the normal growth media is removed and 0.5% FBS/RPMI supplemented with 2 mM Glutamine is added onto the cells. The compound is also prepared in this 0.5% serum media. The plate of cells is incubated for four days and developed as usual.
For orientation: The SRB assay estimates cell density from bound dye.

The target in assay [3] is T1, chimeric receptor containing the EGFR extracellular domain and the HER2 intracellular kinase domain (Homo sapiens, UniProt P04626).
T1 construct: P00533 (Epidermal growth factor receptor)
Kind of assay: EGFR-HER2 chimeric receptor whole cell kinase assay (E/HER2-3T3). The class given is cell-based. The following applies: Table VI, cellular kinase assay.
Source text: as §1
2. EGFR-HER2 Chimeric Receptor
HER2 kinase activity (EGFR-3T3) in whole cells was measured as described below:
The following protocol was used:
A. Coat ELISA plates (Corning, 96 well, Cat. #25805-96) with 05-101 antibody at 0.5 μg per well in PBS, 100 μl final volume/well, and store overnight at 4° C. Coated plates are good for up to 10 days when stored at 4° C.
B. On day of use, remove coating buffer and replace with 100 μl blocking buffer (5% Carnation Instant Non-Fat Dry Milk in PBS). Incubate the plate, shaking, at room temperature (about 23° C. to 25° C.) for 30 minutes. Just prior to use, remove blocking buffer and wash plate 4 times with TBST buffer.
A. An NIH3T3 cell line overexpressing a chimeric receptor containing the EGFR extracellular domain and extracellular HER2 kinase domain can be used for this assay.
A. Choose dishes having 80-90% confluence for the experiment. Trypsinize cells and stop reaction by adding 10% fetal bovine serum. Suspend cells in DMEM medium (10% CS DMEM medium) and centrifuge once at 1500 rpm, at room temperature for 5 minutes.
B. Resuspend cells in seeding medium (DMEM, 0.5% bovine serum), and count the cells using trypan blue. Viability above 90% is acceptable. Seed cells in DMEM medium (0.5% bovine serum) at a density of 10,000 cells per well, 100 μl per well, in a 96 well microtiter plate. Incubate seeded cells in 5% CO2 at 37° C. for about 40 hours.
A. Check seeded cells for contamination using an inverted microscope. Dilute drug stock (10 mg/ml in DMSO) 1:10 in DMEM medium, then transfer 5 μl to a test well for a final drug dilution of 1:200 and a final DMSO concentration of 1%. Control wells receive DMSO alone. Incubate in 5% CO2 at 37° C. for two hours.
A. Prepare EGF ligand: dilute stock EGF in DMEM so that upon transfer of 10 μl dilute EGF (1:12 dilution), 100 nM final concentration is attained.
B. Prepare fresh HNTG* sufficient for 100 μl per well; and place on ice.
C. After 120 minutes incubation with drug, add prepared EGF ligand to cells, 10 μl per well, to a final concentration of 100 nM. Control wells receive DMEM alone. Incubate, shaking, at room temperature, for 5 minutes.
D. Remove drug, EGF, and DMEM. Wash cells twice with PBS. Transfer HNTG* to cells, 100 μl per well. Place on ice for 5 minutes. Meanwhile, remove blocking buffer from other ELISA plate and wash with TBST as described above.
E. With a pipette tip securely fitted to a micropipettor, scrape cells from plate and homogenize cell material by repeatedly aspirating and dispensing the HNTG* lysis buffer. Transfer lysate to a coated, blocked, and washed ELISA plate. Incubate shaking at room temperature for one hour.
F. Remove lysate and wash 4 times with TBST. Transfer freshly diluted anti-Ptyr antibody to ELISA plate at 100 μl per well. Incubate shaking at room temperature for 30 minutes in the presence of the anti-Ptyr antiserum (1:3000 dilution in TBST).
G. Remove the anti-Ptyr antibody and wash 4 times with TBST. Transfer the freshly diluted TAGO anti-rabbit IgG antibody to the ELISA plate at 100 μl per well. […]

A value given as a limit tells only on which side of the number the result lay.

One may read the IC50 as the concentration at which inhibition is half-maximal. Higher therefore signals lower potency. As for `CC(C)(C)c1cc(/C=C(\C#N)S(=O)(=O)c2ccccn2)cc(C(C)(C)C)c1O` [Compound M34, (E)-3-(3,5-di-t-Butyl-4-hydroxyphenyl)-2-[(pyrid-2-yl)sulfonyl]acrylonitrile], the IC50 is 2 µM in assay [1] (Homo sapiens, MCF7, 96 h); 0.06 µM in assay [2] (Homo sapiens, MCF7, 96 h); over 100 µM in assay [3].
`CC(C)c1cc(/C=C(\C#N)S(=O)(=O)c2ccccn2)cc(C(C)C)c1O` [Compound M26] had an IC50 in assay [3] of over 100 µM.
In the case of `CC(C)(C)c1cc(/C=C(\C#N)C(N)=S)cc(C(C)(C)C)c1O` [Compound M11], the IC50 is 4 µM in assay [1] (Homo sapiens, MCF7, 96 h); 0.2 µM in assay [2] (Homo sapiens, MCF7, 96 h); over 100 µM in assay [3].
The corresponding values for `CC(C)(C)c1cc(/C=C(\C#N)S(=O)(=O)c2ccccc2)cc(C(C)(C)C)c1O` [Compound M33, (E)-3-(3,5-di-t-Butyl-4-hydroxyphenyl)-2-(phenylsulfonyl)acrylonitrile] are 1 µM, 0.05 µM and over 100 µM.
Consider `N#C/C(=C\c1ccc(O)c(O)c1)C(=S)NCc1ccccc1` [Compound M13], for which, in assay [3], the IC50 was over 100 µM.
For the compound `N#C/C(=C\c1ccc(O)c(O)c1)C(=O)Nc1cccc(C(F)(F)F)c1` [Compound M15], the IC50 is 15 µM in assay [1] (Homo sapiens, MCF7, 96 h); 6 µM in assay [2] (Homo sapiens, MCF7, 96 h); over 100 µM in assay [3].
`CC(C)c1cc(/C=C(\C#N)C(=O)NCCCc2ccccc2)cc(C(C)C)c1O` [Compound M21, (E)-3-(3,5-Diisopropyl-4-hydroxyphenyl)-2-[(3-phenyl-n-propyl)aminocarbonyl]acrylonitrile]: the IC50 in assay [1] (Homo sapiens, MCF7, 96 h) is 14 µM; in assay [2] (Homo sapiens, MCF7, 96 h) it was 2 µM; in assay [3] it was over 100 µM.
With `CC(C)c1cc(/C=C(\C#N)C(=S)NCCCc2ccccc2)cc(C(C)C)c1O` [Compound M24, (E)-3-(3,5-Diisopropyl-4-hyrdroxyphenyl)-2-[(3-phenyl-n-propyl)aminothiocarbonyl]acrylonitrile], the IC50 in assay [1] (Homo sapiens, MCF7, 96 h) is 8 µM; in assay [2] (Homo sapiens, MCF7, 96 h) it was 1 µM; in assay [3] it was over 100 µM.
The corresponding values for `CC(C)(C)c1cc(/C=C(\C#N)S(=O)(=O)CC#N)cc(C(C)(C)C)c1O` [Compound M36, (E)-3-(3,5-di-t-Butyl-4-hydroxyphenyl)-2-(cyanomethylsulfonyl)acrylonitrile] are 8 µM, 2 µM and over 100 µM.
Consider `Cc1cc(/C=C(\C#N)S(=O)(=O)c2ccccn2)cc(C)c1O` [Compound M32], for which the IC50 in assay [2] (Homo sapiens, MCF7, 96 h) was over 50 µM; in assay [3], over 100 µM.
For the compound `Cc1cc(/C=C(\C#N)S(=O)(=O)c2ccccc2)cc(C)c1O` [Compound M31], in assay [3], the IC50 was over 100 µM.
Turning to `CC(C)c1cc(/C=C(\C#N)S(=O)(=O)CC#N)cc(C(C)C)c1O` [Compound M27], the IC50 in assay [1] (Homo sapiens, MCF7, 96 h) is 33 µM; in assay [2] (Homo sapiens, MCF7, 96 h), 6 µM; in assay [3], over 100 µM.
For “(E,E)-2-[[-Cyano-2-(3,5-diisopropyl-4-hydroxyphenyl)ethenyl]sulfonyl]-3-(3,5-di-t-butyl-4-hydroxyphenyl)acrylonitrile [Compound M37]”, the results for the IC50 in assay [1], in assay [2] and in assay [3] were 3 µM, 1 µM and over 100 µM, respectively.
On to `CC(C)c1cc(/C=C(\C#N)S(=O)(=O)/C(C#N)=C/c2cc(C(C)C)c(O)c(C(C)C)c2)cc(C(C)C)c1O` [Compound M29], for which the IC50 is 12 µM in assay [1] (Homo sapiens, MCF7, 96 h); 2 µM in assay [2] (Homo sapiens, MCF7, 96 h); over 100 µM in assay [3].
Consider `CC(C)c1cc(/C=C(\C#N)S(=O)(=O)c2ccccc2)cc(C(C)C)c1O` [Compound M30], for which the IC50 in assay [1] (Homo sapiens, MCF7, 96 h) is 9 µM; in assay [2] (Homo sapiens, MCF7, 96 h), 2 µM; in assay [3] it was 18.3 µM.
Consider `CC(C)(C)c1cc(/C=C(\C#N)C(=O)NCCCc2ccccc2)cc(C(C)(C)C)c1O` [Compound M20, (E)-3-(3,5-di-t-Butyl-4-hydroxyphenyl)-2-[(3-phenyl-n-propyl)aminocarbonyl]acrylonitrile], for which the IC50 in assay [1] (Homo sapiens, MCF7, 96 h) was 6 µM; in assay [2] (Homo sapiens, MCF7, 96 h), 0.6 µM.
On to `CC(C)c1cc(C=C(C#N)C(N)=C(C#N)C#N)cc(C(C)C)c1O` [Compound M22, (E)-2-(1-Amino-2,2-dicyanoethenyl-3-(3,5-diisopropyl-4-hydroxyphenyl)acrylonitrile)], for which the IC50 in assay [1] (Homo sapiens, MCF7, 96 h) was 44 µM; in assay [2] (Homo sapiens, MCF7, 96 h), 9 µM; in assay [3], over 100 µM.
For `CC(C)(C)c1cc(/C=C(\C#N)C(=O)Nc2ccc(C(F)(F)F)cc2)cc(C(C)(C)C)c1O` [Compound M35, (E)-3-(3,5-di-t-Butyl-4-hydroxyphenyl)-2-[(4-trifluoromethyl)phenylaminocarbonyl]acrylonitrile], in that order: 0.3 µM, 0.09 µM and over 100 µM.
